# Columns and labels:
# Type in all cases: cell-based
# [1] = tested on: human umbilical vein endothelial cells (HUVEC, first passage); test: In vitro toxicology: cell viability, MultiTox-Fluor or Live/Dead assay; settings: doses ranging from 0.1 μM to 100 μM
# Method: Cell viability was determined using human umbilical vein endothelial cells (HUVEC, first passage). Cells were treated with the active agent in doses ranging from 0.1 μM to 100 μM. The number of live and dead cells was determined using the MultiTox-Fluor assay (Promega) or Live/Deadly® assay (Invitrogen). Logistic plots were used to determine the compound's LD50 value. Lipoic acid was not cytotoxic in the concentration range.
# mouse lenses = test: Increase in elasticity: lens organ culture, change in lens diameter under coverslip (ΔD); settings: mouse lenses incubated 8-15 hours, 0.5 μM to 500 μM tested, p<0.0001
# Excerpt: FIG. 4 depicts a scatter plot of the change in ΔD (micrometers) in the absence (control) and presence of lipoic acid in lens organ culture experiments. […] Statistical values are highly significant at p<0.0001 by unpaired t-test and by Kruskal Wallis test, which compared medians of each data set. The relative change in Young's modulus (E) can be calculated as the cubic value derived from the ΔD of the control divided by the ΔD of the experimental or E fractional change=(ΔD con/ΔDexp)^3.
# Increase in Elasticity: Pairs of mouse lenses were incubated in medium 200 supplemented with an antibiotic, an antimycotic, in the presence or absence of lipoic acid (concentrations ranging from 0.5 μM to 500 μM) for 8-15 hours. Each lens was removed from medium, weighed, and photographed on a micrometer scale. A coverslip of known weight (0.17899±0.00200 g) was placed on the lens, and the lens was photographed again on the micrometer scale. The diameter of each lens with and without the coverslip was determined from the photographs. The change in lens diameter produced by the force (coverslip) was computed ΔD=(Dwithcoverslip−Dwithoutcoverslip).
# [2] = tested on: protein disulfides in the mouse lenses; test: Decrease in disulfide bonds: protein SH/SS in lens homogenates by fluorescent alkylation; settings: FIG. 5, p≦0.05 vs control
# Method: FIG. 5 depicts a scattergram of the percent of the total protein SH groups in disulfide bonds. Free SH groups were alkylated with 4-acetamido-4′-maleimidylstilbene-2,2′-sulfonic acid (c, 1 μM, 5 μM, 9.6 μM, 50 μM, 96 μM) or 7-diethylamino-3-(4′maleimidylphenyl)-4-methyl coumarin (500 μM, and 500 μM c). Following removal of the first alkylating agent, the S—S bonds were reduced and alkylated with fluorescein-5-maleimide. Absorption spectra were used to calculated total protein (A280 nm), free protein SH (A322 or A384), and protein SS (A490) using the appropriate extinction coefficients. The symbol ‡ indicates statistically significant difference of mean with mean of control (c, p≦0.05).
# Mouse lenses were homogenized in a denaturing buffer containing a fluorescent alkylating agent to modify the free SH groups. After removing the alkylating agent homogenates were reduced and alkylated with a different fluorescent alkylating agent. Absorption spectra of the modified proteins were used to calculate free protein SH and protein SS groups.
smiles,measurement,setting,value
"O=C(O)CCCCC1CCSS1 (stereo not drawn) [lipoic acid, 5-(1,2-dithiolan-3-yl)pentanoic acid]",cytotoxicity (live and dead cells),[1],not cytotoxic
same,concentrations causing a statistically significant increase in ΔD,mouse lenses,≥ 9.6 µM
same,concentrations causing a statistically significant decrease in protein disulfides,[2],≥ 9.6 µM
